Source: patent US20250186398A1, “CONTINUOUS DOSING REGIMEN FOR TREATMENT OF A CONDITION OF THE EYE” (EYEPOINT PHARMACEUTICALS, INC., priority 2022, published 2025)

How the values were obtained:
[1] = Intravitreal Pharmacokinetic Study of vorolanib insert (Example 5A); format: in vivo, Male Dutch Belted Rabbits
Experimental: An Intravitreal Pharmacokinetic Study was performed in Male Dutch Belted Rabbits. The objective of this study was to characterize the plasma and ocular tissue pharmacokinetics of a vorolanib insert following bilateral intravitreal injection on Day 1. Animals were evaluated up to 24 months following placement of the intravitreal insert.
The low dose group (1) received 3 inserts per eye for a total dose of 630 μg per eye. The high dose group (2) animals received 6 inserts per eye given in 2 separate injections (3 inserts per injection) for a total dose of 1,260 μg per eye.
Prior to each scheduled sacrifice point, one whole blood sample was collected from a targeted 2 animals per group via puncture of a marginal ear vein. Samples were tested for levels of vorolanib and its metabolite. Two animals per group were euthanized on day 1 at 6, 12, 24 and 48 hours, on days 7 and 14, and at 1, 2, 4, 6, 8, 16 and 24 months.

[2] = Intravitreal Pharmacokinetic Study of vorolanib insert, 12 months (Example 5B); format: in vivo, Dutch Belted Rabbits
Experimental: Another Intravitreal Pharmacokinetic Study was performed in Dutch Belted Rabbits. The objective of this study was to evaluate the plasma and ocular pharmacokinetics of a vorolanib insert following bilateral intravitreal injection in rabbit eyes. Animals were evaluated up to 12 months following placement of the intravitreal insert.
Dutch Belted rabbits were administered vorolanib inserts in each eye by intravitreal injection. Group 1 eyes received 1 insert containing 643 μg of vorolanib, and Group 2 eyes received 2 inserts containing 900 μg total. Blood samples were collected at 2, 7, 14, and 28 days and then once monthly for months 2-12. Inserts were recovered at 2, 7, and 14 days and then at 1, 2, 4, 6, 8, 10, and 12 months. Residual vorolanib levels were determined in all explants using high-performance liquid chromatography. The vorolanib release rate was estimated based on residual levels in the explants. Plasma and ocular tissues were separated and analyzed for vorolanib and its metabolite using liquid chromatography-mass spectrometry.

[3] = 18 month intravitreal toxicity and plasma pharmacokinetics study (Example 6); format: in vivo
Experimental: An 18 month intravitreal toxicity study for the insert was also performed in 80 Dutch Belted rabbits (40 male and 40 female). Animals were evaluated for a period of 6 and 18 months following placement of intravitreal inserts. The objective was to characterize the ocular toxicity, plasma pharmacokinetics and biodegradation of a vorolanib insert following bilateral intravitreal injection.
The tables below describe the group assignments and dose levels. For the toxicology groups, animals were sacrificed at 6 months and 18 months. For the plasma pharmacokinetic analysis, blood samples were collected at Days 1, 3, and 7 and then 1, 2, 3, 4, 5, 6, 12, 14, 16 and 18 Months.
The placebo group (1) animals received two placebo inserts by injection in each eye. The low dose group (2) animals received 2 inserts in each eye. The mid dose group (3) animals received 3 inserts in each eye given in 2 separate injections. The high dose group (4) animals received 4 inserts in each eye given in 2 separate injections (2 inserts/injection). The highest dose group (5) animals received 6 inserts in each eye given in 2 separate injections (3 inserts/injection).
At each scheduled timepoint, whole blood was collected via puncture of a marginal ear vein. Samples were analyzed for clinical pathology and plasma pharmacokinetics. Animals were euthanized according to the schedules described above. A complete gross necropsy was performed on all animals that were sacrificed or found dead during the study. Organs were weighed and tissues collected. Ocular tissues were collected for histopathology only.

[4] = system: Laser-Induced Choroidal Neovascularization (CNV); assay: Swine (Mini-pig) Model of Laser-Induced Choroidal Neovascularization, fluorescein angiography (Example 7); format: in vivo
Experimental: Safety and efficacy of a vorolanib insert were evaluated in a Swine (Mini-pig) Model of Laser-Induced Choroidal Neovascularization (CNV). The primary objective of this study was to evaluate the long-term safety and inhibition of vascular permeability and neovascularization in a laser-induced model of choroidal neovascularization (CNV) using a vorolanib insert in swine.
On the day of lasering (Groups 1-4) animals were treated with an 810 nm diode laser delivered through an indirect ophthalmoscope. Approximately 6 single laser spots were placed between retinal veins. Both eyes underwent laser treatment according to the schedule in the table above.
On the day of intravitreal injections animals were anesthetized and the eyes were aseptically prepared. […] Animals were allowed to recover normally from the procedure. The pigs were given a topical drop of antibiotic ophthalmic solution 4-6 hours later, and then BID for 2 additional days with at least 6 hours between doses. Animals were dosed on either Day 0 immediately following laser CNV induction or 7 days prior to laser CNV induction according to the schedule in the table above.
Flourescein Angiography was done in both eyes in anesthetized animals at the timepoints as indicated in the experimental design table.

| Compound | dose proportionality of maximum observed concentrations in vitreous and retina/choroid ([1]; 630 vs 1,260 μg per eye) | vorolanib plasma levels ([1]; PK study, intravitreal inserts) | change in plasma levels ([1]; after 99 days) | drop in mean vorolanib concentration in ocular tissues and plasma ([2]; between months 8 and 10) | vorolanib exposure rank order ([2]; ocular tissues and plasma) | concentrations in target ocular tissues (choroid and retina) relative to IC50 for VEGFR2 ([2]; through 8 months) | vorolanib levels in the vitreous and the retina/choroid relative to IC50 for VEGFR ([3]; at the time points tested) | vorolanib plasma levels ([3]; intravitreal inserts) | adverse findings attributed to vorolanib ([3]; up to 6 inserts per eye) | efficacy in this model ([4]; 2 mg IVT) | reduction in Corrected Total Lesion Fluorescence (CTLF) from Day 7 to Day 28, rank among Groups 1-4 ([4]; Group 1, 2 mg, 50 μL/eye IVT, Day 0) |
| --- | --- | --- | --- | --- | --- | --- | --- | --- | --- | --- | --- |
| Cc1[nH]c(/C=C2\C(=O)Nc3ccc(F)cc32)c(C)c1C(=O)N[C@H]1CCN(C(=O)N(C)C)C1 [vorolanib, (S,Z)—N-(1-(Dimethylcarbamoyl)pyrrolidin-3-yl)-5-((5-fluoro-2-oxoindolin-3-ylidene)methyl)-2,4-dimethyl-1H-pyrrole-3-carboxamide] | nearly dose proportional | low pg/mL range | No apparent change | 85%-99% | choroid=retina=vitreous>aqueous humor>plasma | above the IC50 for VEGFR2 | significantly above the IC50 for VEGFR | low pg/mL range | No adverse findings | – | – |
| aflibercept: VEGF inhibitor (Regeneron), intravitreal standard of care, comparator in swine CNV model | – | – | – | – | – | – | – | – | – | normal amounts of efficacy | largest reduction |
